The values below are quoted from earlier work in patent US8481060B2, “Melt-coated pharmaceutical composition with fast release” (Losan Pharma GmbH, priority 2008, dated 2013).

SMILES strings stand for the structures.

For this data set the following is noted: taste-masking compound (excipient).
On to `CCCCCCCCCCCCCCCCCCCC(=O)O` [arachinic acid], for which the HLB is on record as −7.
Turning to `CCCCCCCCCCCCCCCCCCCCCC(=O)O` [behenic acid], the HLB was −8.
Turning to `CCCCCCCCCCCCCCCCC(=O)O` [margaric acid], the HLB is listed as −6.
In the case of `CCCCCCCCCCCCCCCCCCC(=O)O` [nonadecane acid], the HLB is listed as −6.
Regarding `CCCCCCCCCCCCCCCC(=O)O` [palmitinic acid], the HLB is on record as −5.
In the case of `CCCCCCCCCCCCCCCCCC(=O)O` [stearic acid], the HLB is on record as −6.
